Read-outs that look alike come from different tables or passages of the source.
Experiments:
Format in all cases: physicochemical
[1] = Dynamic vapor sorption (DVS)
Description: Approximately, 10 mg of sample was placed into a mesh vapor sorption balance pan and loaded into a DVS-1 dynamic vapor sorption balance by Surface Measurement Systems. The sample was subjected to a ramping profile from 40-90% relative humidity (RH) at 10% increments, maintaining the sample at each step until a stable weight had been achieved (99.5% step completion). After completion of the sorption cycle, the sample was dried using the same procedure to 0% RH and then a second sorption cycle back to 40% RH. The weight change during the sorption/desorption cycles were plotted, allowing for the hygroscopic nature of the sample to be determined. XRPD analysis was then carried out on any solid retained.

[2] = Hydration screen (acetone/water mixtures of various water activities); conditions: ambient
Description: Hydration screen was carried out as follows: 10 mg of prepared salts were suspended in several acetone/water mixtures of various water activities (low: aw=0.281, medium: aw=0.776 and high: aw=0.919) and agitated at ambient temperatures for 24 hr. Any recovered solids were submitted for XRPD analysis to determine any changes to form.

[3] = 1 week stability tests (40° C./75% RH, 80° C., ambient light; XRPD and UPLC)
[4] = Salt disproportionation studies; conditions: deionized water, 24 h, ambient temperature
Description: Salt disproportionation studies were carried out as follows: 20 mg of prepared salts were weighed into a vial and 0.5 mL of deionized water was added. The samples were then agitated for 24 h at ambient temperature. The pH of the samples was taken pre- and post-agitation. Any solids recovered were submitted for XRPD analysis to determine any changes to form.

[5] = Salt stability studies (40° C./75% RH for 1 week, XRPD)
Description: Recovered salts were placed in an oven at 40° C./75% RH for 1 week, and the resultant materials were analyzed by XRPD to determine any changes to form or crystallinity.

Thermodynamic solubility = conditions: for solubility thermodynamic at 24 h: thermodynamic from solid, ambient temperature, read-out: Concentration (thermodynamic solubility)
Description: Thermodynamic solubility studies were carried out as follows: 10 mg of prepared salts were suspended in pH 1, 4.5, 6.8 and un-buffered water (300 μL). The pH of the slurries was measured and adjusted accordingly using either 0.2M HCl solution or 0.2M sodium hydroxide solution. The slurries were agitated for 24 hours at ambient temperature using an incubator shaker.

[6] = Gravimetric vapor sorption (GVS)
Description: Approximately 10-20 mg of sample was placed into a mesh vapor sorption balance pan and loaded into an IGASorp Moisture Sorption Analyzer balance by Hiden Analytical. […] After completion of the sorption cycle, the sample was dried using the same procedure to 0% RH, and finally taken back to the starting point of 40% RH. The weight change during the sorption/desorption cycles were plotted, allowing for the hygroscopic nature of the sample to be determined.

[7] = high water activity aw=0.919, 24 hr
[8] = low water activity aw=0.281, 24 hr
[9] = medium water activity aw=0.776, 24 hr
[10] = pH 6.8 potassium phosphate buffer, aqueous buffer, pH 6.8 buffer
[11] = simulated gastric fluid, pH 1 buffer

C[C@@H]1CCc2ncc(F)cc2[C@H]2CCCN2c2ccn3ncc(c3n2)C(=O)N1.O=C(O)CC(O)(CC(=O)O)C(=O)O [Compound 1 citrate]
hygroscopicity by DVS (in words) ([1]; DVS humidity conditions): low hygroscopicity
change in crystalline form after exposure to DVS conditions (post-DVS XRPD) ([1]; after DVS cycle): no changes in crystalline form
mass uptake (DVS) ([1]; at 90% RH): around 1.8%
solid recovered from hydration screen (XRPD) [2, 7]: poorly crystalline citrate salt
solid recovered from hydration screen (XRPD) [2, 8]: poorly crystalline citrate salt
solid recovered from hydration screen (XRPD) [2, 9]: unknown form, referred to here as Form B
change in purity after 1 week stability test (UPLC) ([3]; 40° C./75% RH): no change to purity
change to form after 1 week stability test (XRPD) ([3]; 40° C./75% RH): no change to form
change in purity after 1 week stability test (UPLC) ([3]; 80° C.): no change to purity
change to form after 1 week stability test (XRPD) ([3]; 80° C.): no change to form
change in purity after 1 week stability test (UPLC) ([3]; ambient light): no change to purity
change to form after 1 week stability test (XRPD) ([3]; ambient light): no change to form
material recovered after salt disproportionation study (XRPD) [4]: poorly crystalline citrate salt
changes to form or crystallinity after stability conditions (XRPD) ([5]; salt recovered from TBME): a decrease to crystallinity but no change to form
changes to form or crystallinity after stability conditions (XRPD) ([5]; salt recovered from acetone): a decrease to crystallinity but no change to form
solubility thermodynamic at 24 h (Thermodynamic solubility; aqueous buffer, pH 4.5 buffer): 300 µg/mL
solids recovered after thermodynamic solubility study (XRPD) (Thermodynamic solubility; pH 1): poorly crystalline solids
thermodynamic solubility (in words) (Thermodynamic solubility; pH 1): high solubility
solids recovered after thermodynamic solubility study (XRPD) (Thermodynamic solubility; pH 4.5): Compound 1 citrate
thermodynamic solubility (in words) (Thermodynamic solubility; pH 4.5): lower solubility
solids recovered after thermodynamic solubility study (XRPD) (Thermodynamic solubility; pH 6.8): poorly crystalline free base
thermodynamic solubility (in words) (Thermodynamic solubility; pH 6.8): lower solubility
solubility thermodynamic at 24 h (Thermodynamic solubility; [10]): 900 µg/mL
solubility thermodynamic at 24 h (Thermodynamic solubility; [11]): 18600 µg/mL
solubility thermodynamic at 24 h (Thermodynamic solubility; un-buffered water): 21000 µg/mL
solids recovered after thermodynamic solubility study (XRPD) (Thermodynamic solubility; un-buffered water): Compound 1 citrate
thermodynamic solubility (in words) (Thermodynamic solubility; un-buffered water): highly soluble

CS(=O)(=O)O.C[C@@H]1CCc2ncc(F)cc2[C@H]2CCCN2c2ccn3ncc(c3n2)C(=O)N1 [Compound 1 mesylate]
solid recovered from hydration screen (XRPD) [2, 7]: free base
solid recovered from hydration screen (XRPD) [2, 8]: a mixture of free base and salt
solid recovered from hydration screen (XRPD) [2, 9]: mesylate salt
change in purity after 1 week stability test (UPLC) ([3]; 40° C./75% RH): no change to purity
change in purity after 1 week stability test (UPLC) ([3]; 80° C.): no change to purity
change in purity after 1 week stability test (UPLC) ([3]; ambient light): no change to purity
RH at which the material deliquesced (GVS) ([6]; GVS humidity conditions): 30 % RH
hygroscopicity by GVS (in words) ([6]; GVS humidity conditions): high hygroscopicity
change in crystalline form after exposure to GVS conditions (post-GVS XRPD) ([6]; after GVS cycle): desolvate and become the mesylate form seen in the salt screen
mass uptake (GVS) ([6]; at 90% RH): about 32%
material recovered after salt disproportionation study (XRPD) [4]: no change to form by XRPD analysis but crystallinity reduced
changes to form or crystallinity after stability conditions (XRPD) ([5]; salt recovered from acetone): no changes to crystallinity or form
changes to form or crystallinity after stability conditions (XRPD) ([5]; salt recovered from isopropanol): a slight increase in crystallinity but no changes to form
changes to form or crystallinity after stability conditions (XRPD) ([5]; salt recovered from methanol): a decrease in crystallinity but no changes to form
solubility thermodynamic at 24 h (Thermodynamic solubility; aqueous buffer, pH 4.5 buffer): 9300 µg/mL
thermodynamic solubility (in words) (Thermodynamic solubility; pH 1): moderately soluble
solids recovered after thermodynamic solubility study (XRPD) (Thermodynamic solubility; pH 4.5): mesylate salt
thermodynamic solubility (in words) (Thermodynamic solubility; pH 4.5): moderately soluble
solids recovered after thermodynamic solubility study (XRPD) (Thermodynamic solubility; pH 6.8): free base
thermodynamic solubility (in words) (Thermodynamic solubility; pH 6.8): low solubility
solubility thermodynamic at 24 h (Thermodynamic solubility; [10]): 1500 µg/mL
solubility thermodynamic at 24 h (Thermodynamic solubility; [11]): 14300 µg/mL
solubility thermodynamic at 24 h (Thermodynamic solubility; un-buffered water): 9600 µg/mL
solids recovered after thermodynamic solubility study (XRPD) (Thermodynamic solubility; un-buffered water): free base
thermodynamic solubility (in words) (Thermodynamic solubility; un-buffered water): moderately soluble

— US20190247398A1, “FORMULATIONS OF A MACROCYCLIC TRK KINASE INHIBITOR” (Array BioPharma Inc., priority 2017, published 2019)
